Laboratory results reported in patent US20100086483A1, “METHOD OF MULTIDETECTOR COMPUTED TOMAGRAPHY” (Gilead Palo Alto, Inc., priority 2008, published 2010).

Tests used:
normal subjects [1] = experiment: Safety and tolerability of regadenoson with and without prior caffeine; assay type: in vivo, human
Procedure: (§1) 15O water was used as the radionuclide in the PET scans. There was a 1- to 14-day washout period between dosing days. Blood samples and measures of safety were collected until 120 minutes after study drug administration.
Safety measures included adverse events (AEs), serious adverse events, vital signs (HR and BP), ECG, concomitant medications, and a tolerability questionnaire. All available data from subjects who received the single dose of regadenoson were to be included in the statistical summaries.
ECG intervals and changes from baseline values in ECG intervals were to be presented, as were occurrences of rhythm or conduction abnormalities. Concomitant medication usage was to be summarized.
Tolerability questionnaire responses were to be analyzed using the Wilcoxen rank sum test (“How did you feel?” question) and the exact Cochran-Mantel-Haenszel test (Day 2-only question “How did this test compare to the first test?”).

normal subjects [2] = experiment: PET myocardial blood flow / coronary flow reserve after regadenoson with and without caffeine, crossover study; assay type: in vivo, human; details: for log CFR±SE: n=40
Procedure: as §1
The CVT tracking number for the placebo capsules was 1341 (Leg 2).
The primary efficacy measure was the log coronary flow reserve (CFR), which is the ratio of stress MBF after regadenoson dosing to the resting MBF.
The data were also to be analyzed using Wilcoxon's rank-sum test.

[3] = caffeine 200 mg po vs placebo, regadenoson 400 μg IV, p<0.001
[4] = caffeine 200 mg po, regadenoson 400 μg IV
[5] = regadenoson 400 μg IV after caffeine 200 mg po
[6] = regadenoson 400 μg IV, 25/43 subjects
[7] = regadenoson 400 μg IV after placebo capsule

Structure (SMILES): Cn1c(=O)c2c(ncn2C)n(C)c1=O [Caffeine, caffeine]
- tolerability questionnaire: comfort during the test with caffeine (normal subjects [1]; [3]): felt more comfortable
- tolerability questionnaire: feeling after the caffeine test vs the placebo test (normal subjects [1]; [3]): felt better
- effect of caffeine on severity of AEs (normal subjects [1]; [4]): attenuated
- effect of caffeine on systolic or diastolic blood pressures in the presence of regadenoson (normal subjects [1]; [4]): no effect
- overall incidence of AEs, placebo vs caffeine groups (normal subjects [1]; [4]): no difference
- effect of caffeine on HR increase caused by regadenoson (normal subjects [1]; caffeine 200 mg po, regadenoson 400 μg IV, p<0.001): attenuated
- regadenoson-induced headache severity with caffeine (normal subjects [1]; caffeine 200 mg po, regadenoson 400 μg IV, p=0.012): decreased
- change in CFR (95% confidence) (normal subjects [2]; caffeine 200 mg po vs placebo, regadenoson 400 μg IV): < 20%
- exponentiated lower limit of 90% confidence interval for log CFR (caffeine versus placebo difference) (normal subjects [2]; [4]): 0.80
- exponentiated lower limit of 95% confidence interval for log CFR (caffeine versus placebo difference) (normal subjects [2]; [4]): 0.78
- exponentiated upper limit of 90% confidence interval for log CFR (caffeine versus placebo difference) (normal subjects [2]; [4]): 1.06
- exponentiated upper limit of 95% confidence interval for log CFR (caffeine versus placebo difference) (normal subjects [2]; [4]): 1.08
- interaction of caffeine with regadenoson on CFR by sex (normal subjects [2]; [4]): no significant interaction
- CFR (stress/rest) (normal subjects [2]; [5]): 2.75±0.16
- log CFR±SE (normal subjects [2]; [5]): 0.95±0.06

Structure (SMILES): CNC(=O)c1cnn(-c2nc(N)c3ncn([C@@H]4O[C@H](CO)[C@@H](O)[C@H]4O)c3n2)c1 [Regadenoson, (1-{9-[(4S,2R,3R,5R)-3,4-dihydroxy-5-(hydroxymethyl)oxolan-2-yl]-6-aminopurin-2-yl}pyrazol-4-yl)-N-methylcarboxamide]
- AE sensation of heaviness, percentage of subjects (normal subjects [1]; regadenoson 400 μg IV): 28%
- QTc prolongation (>500 msec and change of >60 msec) by ECG analysis after regadenoson dosing (normal subjects [1]; regadenoson 400 μg IV): one subject
- first degree AV block by ECG analysis after regadenoson dosing (normal subjects [1]; regadenoson 400 μg IV): one subject
- deaths or SAEs (normal subjects [1]; regadenoson 400 μg IV with and without caffeine): no reported deaths or SAEs
- patients with at least one AE considered possibly related to regadenoson treatment (normal subjects [1]; regadenoson 400 μg IV, 1/43): 2%
- AEs: ear and labyrinth disorders, percentage of subjects (normal subjects [1]; regadenoson 400 μg IV, 1/43 subjects): 2%
- AEs: gastrointestinal disorders, percentage of subjects (normal subjects [1]; regadenoson 400 μg IV, 2/43 subjects): 5%
- subjects with at least one AE with a maximum severity of severe (normal subjects [1]; regadenoson 400 μg IV, 4/43): 9%
- AE paraesthesia, percentage of subjects (normal subjects [1]; regadenoson 400 μg IV, 8/43): 19%
- AEs: general disorders and administration site conditions, percentage of subjects (normal subjects [1]; regadenoson 400 μg IV, 11/43 subjects): 26%
- AE headache, percentage of subjects (normal subjects [1]; regadenoson 400 μg IV, 12/43): 28%
- AEs: musculoskeletal and connective tissue disorders, percentage of subjects (normal subjects [1]; regadenoson 400 μg IV, 12/43 subjects): 28%
- AE flushing, percentage of subjects (normal subjects [1]; regadenoson 400 μg IV, 13/43): 30%
- AEs: vascular disorders, percentage of subjects (normal subjects [1]; regadenoson 400 μg IV, 13/43 subjects): 30%
- AEs: nervous system disorders, percentage of subjects (normal subjects [1]; regadenoson 400 μg IV, 18/43 subjects): 42%
- AE palpitations, percentage of subjects (normal subjects [1]; regadenoson 400 μg IV, 21/43): 49%
- subjects with at least one AE with a maximum severity of moderate (normal subjects [1]; regadenoson 400 μg IV, 21/43): 49%
- AE dyspnoea, percentage of subjects (normal subjects [1]; regadenoson 400 μg IV, 24/43): 56%
- AEs: cardiac disorders, percentage of subjects (normal subjects [1]; [6]): 58%
- AEs: respiratory, thoracic and mediastinal disorders, percentage of subjects (normal subjects [1]; [6]): 58%
- subjects with at least one AE with a maximum severity of mild (normal subjects [1]; regadenoson 400 μg IV, forty percent): 17/43
- subjects with at least one AE considered probably related to regadenoson treatment (normal subjects [1]; regadenoson 400 μg IV, ninety-five percent): 41/43
- CFR (stress/rest) (normal subjects [2]; [7]): 2.97±0.16
- log CFR±SE (normal subjects [2]; [7]): 1.03±0.06
